Results published in patent publication EP4603105A1, “PHARMACEUTICAL COMPOSITION CONTAINING CYCLIC COMPOUND HAVING SELECTIVE KRAS INHIBITORY EFFECT AGAINST HRAS AND NRAS” (CHUGAI SEIYAKU KABUSHIKI KAISHA, priority 2022, dated 2024).

Tests used:
[1] = biological target: GDP-bound NRAS wild-type protein (Homo sapiens, UniProt P01111); test: Binding to NRAS by surface plasmon resonance (SPR), KD and KD ratio to KRAS; conditions: ratio of the KD value with respect to GDP-bound NRAS wild-type protein to the KD value with respect to KRAS
Chain of GDP-bound NRAS wild-type protein (P01111 whole entry): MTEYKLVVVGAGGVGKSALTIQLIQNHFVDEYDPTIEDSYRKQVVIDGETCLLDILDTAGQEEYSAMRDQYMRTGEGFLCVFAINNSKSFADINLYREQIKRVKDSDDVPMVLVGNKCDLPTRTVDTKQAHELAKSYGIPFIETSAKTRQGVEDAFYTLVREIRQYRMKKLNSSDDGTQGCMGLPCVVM
How it was run: (§1)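 GDP-bound biotin-Avi RAS captured at ~100–300 RU, 30°C, pH 7.4 HBS containing 10 µM GDP, 10 mM MgCl2, 1 mM DTT, 0.01% Tween 20 and 4% DMSO. KD by 1:1 fitting.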

[2] = system: human lung cancer strain NCI-H441; format: cell-based
How it was run: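 Readout: […] after the ATP-based reagent. Compound: serial dilutions in dimethyl sulfoxide.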

HRAS wild-type protein = HRAS wild-type protein (Homo sapiens, UniProt P01112); test: Binding to HRAS by surface plasmon resonance (SPR), KD and KD ratio to KRAS; conditions: ratio of the KD value with respect to HRAS wild-type protein to the KD value with respect to KRAS
Chain of HRAS wild-type protein (P01112 whole entry): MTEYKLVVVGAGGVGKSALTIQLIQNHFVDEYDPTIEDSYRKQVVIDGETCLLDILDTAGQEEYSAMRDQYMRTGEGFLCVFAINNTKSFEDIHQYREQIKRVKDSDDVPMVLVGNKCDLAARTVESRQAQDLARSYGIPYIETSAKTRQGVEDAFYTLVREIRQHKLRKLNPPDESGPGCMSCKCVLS
How it was run: as §1

Structure (SMILES)	NRAS /KRAS [1]	IC50 [2] [nM]	HRAS /KRAS (HRAS wild-type protein)
CCCN(C)C(=O)[C@@H]1CC(=O)N(C)[C@@H](COCC)C(=O)N[C@@H]([C@@H](C)CC)C(=O)N(C)CC(=O)N(C)[C@H]2C/C=C\CCN(C2=O)[C@@H](Cc2ccc(C(F)(F)F)cc2)C(=O)N(C)CC(=O)N[C@@H](CCc2cc(F)c(C(F)(F)F)c(F)c2)C(=O)N2C[C@H](OCC)C[C@H]2C(=O)NC2(CCC2)C(=O)N(C)[C@@H](C2CCCC2)C(=O)N1C [PP1988]	A (a compound having 10 or more and less than 20 is denoted as A)	11	A (a compound having 10 or more and less than 20 is denoted as A)
CCCN(C)C(=O)[C@@H]1CC(=O)N(C)[C@@H](CC(F)F)C(=O)N[C@@H]([C@@H](C)CC)C(=O)N(C)CC(=O)N(C)[C@H]2C/C=C\CCN(C2=O)[C@@H](Cc2ccc(C(F)(F)F)cc2)C(=O)N(C)CC(=O)N[C@@H](CCc2ccc(C(F)(F)F)c(OC)c2)C(=O)N2C[C@@H](C)C[C@H]2C(=O)NC2(CC(C)(C)C2)C(=O)N(C)[C@@H](C2CCCC2)C(=O)N1C [PP1989]	A (a compound having 10 or more and less than 20 is denoted as A)	11.1	A (a compound having 10 or more and less than 20 is denoted as A)
CCO[C@@H]1C[C@H]2C(=O)NC3(CCC3)C(=O)N(C)[C@@H](C3CCCC3)C(=O)N(C)[C@H](C(=O)N(C)CC)CC(=O)N(C)[C@@H](C(C)C)C(=O)N[C@@H]([C@@H](C)CC)C(=O)N(C)CC(=O)N(C)[C@H]3C/C=C\CCN(C3=O)[C@@H](Cc3ccc(C(F)(F)F)cc3)C(=O)N(C)CC(=O)N[C@@H](CCc3cc(F)c(C(F)(F)F)c(F)c3)C(=O)N2C1 [PP1990]	A (a compound having 10 or more and less than 20 is denoted as A)	6.6	A (a compound having 10 or more and less than 20 is denoted as A)
CCCN(C)C(=O)[C@@H]1CC(=O)N(C)[C@@H](COCC)C(=O)N[C@@H]([C@@H](C)CC)C(=O)N(C)CC(=O)N(C)[C@H]2C/C=C\CCN(C2=O)[C@@H](Cc2ccc(C(F)(F)F)cc2)C(=O)N(C)CC(=O)N[C@@H](CCc2ccc(C(F)(F)F)c(OC)c2)C(=O)N2C[C@@H](C)C[C@H]2C(=O)NC2(CC(C)(C)C2)C(=O)N(C)[C@@H](C2CCCC2)C(=O)N1C [PP1991]	A (a compound having 10 or more and less than 20 is denoted as A)	10.8	A (a compound having 10 or more and less than 20 is denoted as A)
CCCN(C)C(=O)[C@@H]1CC(=O)N(C)[C@@H](C(C)C)C(=O)N[C@@H]([C@@H](C)CC)C(=O)N(C)CC(=O)N(C)[C@H]2C/C=C\CCN(C2=O)[C@@H](Cc2ccc(C(F)(F)F)cc2)C(=O)N(C)CC(=O)N[C@@H](CCc2cc(F)c(C(F)(F)F)c(F)c2)C(=O)N2C[C@H](OCC)C[C@H]2C(=O)NC2(CCC2)C(=O)N(C)[C@@H](C2CCCC2)C(=O)N1C [PP1992]	AA (a compound having 20 or more is denoted as AA)	17.7	B (a compound having 3 or more and less than 10 is denoted as B)
CCOC[C@H]1C(=O)N[C@@H]([C@@H](C)CC)C(=O)N(C)CC(=O)N(C)[C@H]2C/C=C\CCN(C2=O)[C@@H](Cc2ccc(C(F)(F)F)cc2)C(=O)N(C)CC(=O)N[C@@H](CCc2ccc(C(F)(F)F)c(OC)c2)C(=O)N2C[C@@H](C)C[C@H]2C(=O)NC2(CC(C)(C)C2)C(=O)N(C)[C@@H](C2CCCC2)C(=O)N(C)[C@H](C(=O)N(C)CC)CC(=O)N1C [PP1993]	A (a compound having 10 or more and less than 20 is denoted as A)	13.3	A (a compound having 10 or more and less than 20 is denoted as A)
CCCN(C)C(=O)[C@@H]1CC(=O)N(C)[C@@H](C2CC2)C(=O)N[C@@H]([C@@H](C)CC)C(=O)N(C)CC(=O)N(C)[C@H]2C/C=C\CCN(C2=O)[C@@H](Cc2ccc(C(F)(F)F)cc2)C(=O)N(C)CC(=O)N[C@@H](CCc2cc(F)c(C(F)(F)F)c(F)c2)C(=O)N2C[C@H](OCC)C[C@H]2C(=O)NC2(CCC2)C(=O)N(C)[C@@H](C2CCCC2)C(=O)N1C [PP1994]	AA (a compound having 20 or more is denoted as AA)	22.4	A (a compound having 10 or more and less than 20 is denoted as A)
CCCOC[C@H]1C(=O)N[C@@H]([C@@H](C)CC)C(=O)N(C)CC(=O)N(C)[C@H]2C/C=C\CCN(C2=O)[C@@H](Cc2ccc(C(F)(F)F)cc2)C(=O)N(C)CC(=O)N[C@@H](CCc2ccc(C(F)(F)F)c(OC)c2)C(=O)N2C[C@@H](C)C[C@H]2C(=O)NC2(CC(C)(C)C2)C(=O)N(C)[C@@H](C2CCCC2)C(=O)N(C)[C@H](C(=O)N(C)CC)CC(=O)N1C [PP1995]	A (a compound having 10 or more and less than 20 is denoted as A)	17.8	B (a compound having 3 or more and less than 10 is denoted as B)
CCO[C@@H]1C[C@H]2C(=O)NC3(CCC3)C(=O)N(C)[C@@H](C3CCCC3)C(=O)N(C)[C@H](C(=O)N(C)CC)CC(=O)N(C)[C@@H](C3CCC3)C(=O)N[C@@H]([C@@H](C)CC)C(=O)N(C)CC(=O)N(C)[C@H]3C/C=C\CCN(C3=O)[C@@H](Cc3ccc(C(F)(F)F)cc3)C(=O)N(C)CC(=O)N[C@@H](CCc3cc(F)c(C(F)(F)F)c(F)c3)C(=O)N2C1 [PP1996]	A (a compound having 10 or more and less than 20 is denoted as A)	15.5	B (a compound having 3 or more and less than 10 is denoted as B)
CC[C@H](C)[C@@H]1NC(=O)[C@H](CCOC)N(C)C(=O)C[C@@H](C(=O)N(C)CC)N(C)C(=O)[C@H](C2CCCC2)N(C)C(=O)C2(CC(C)(C)C2)NC(=O)[C@@H]2C[C@H](C)CN2C(=O)[C@H](CCc2ccc(C(F)(F)F)c(OC)c2)NC(=O)CN(C)C(=O)[C@H](Cc2ccc(C(F)(F)F)cc2)N2CC/C=C\C[C@@H](C2=O)N(C)C(=O)CN(C)C1=O [PP1999]	A (a compound having 10 or more and less than 20 is denoted as A)	26.6	B (a compound having 3 or more and less than 10 is denoted as B)
CCCN(C)C(=O)[C@@H]1CC(=O)N(C)[C@@H](CC(F)F)C(=O)N[C@@H]([C@@H](C)CC)C(=O)N(C)CC(=O)N(C)[C@H]2C/C=C\CCN(C2=O)[C@@H](Cc2ccc(C(F)(F)F)cc2)C(=O)N(C)CC(=O)N[C@@H](CCc2cc(F)c(C(F)(F)F)c(F)c2)C(=O)N2C[C@@H](C)C[C@H]2C(=O)NC2(CCC2)C(=O)N(C)[C@@H](C2CCCC2)C(=O)N1C [PP2000]	A (a compound having 10 or more and less than 20 is denoted as A)	17.7	B (a compound having 3 or more and less than 10 is denoted as B)
CCCN(C)C(=O)[C@@H]1CC(=O)N(C)[C@@H](CCOC)C(=O)N[C@@H]([C@@H](C)CC)C(=O)N(C)CC(=O)N(C)[C@H]2C/C=C\CCN(C2=O)[C@@H](Cc2ccc(C(F)(F)F)cc2)C(=O)N(C)CC(=O)N[C@@H](CCc2ccc(C(F)(F)F)c(OC)c2)C(=O)N2C[C@@H](C)C[C@H]2C(=O)NC2(CC(C)(C)C2)C(=O)N(C)[C@@H](C2CCCC2)C(=O)N1C [PP2001]	A (a compound having 10 or more and less than 20 is denoted as A)	18.1	A (a compound having 10 or more and less than 20 is denoted as A)
CC[C@H](C)[C@@H]1NC(=O)[C@H](C(C)C)N(C)C(=O)C[C@@H](C(=O)N(C)CC)N(C)C(=O)[C@H](C2CCCC2)N(C)C(=O)C2(CC(C)(C)C2)NC(=O)[C@@H]2C[C@H](C)CN2C(=O)[C@H](CCc2ccc(C(F)(F)F)c(OC)c2)NC(=O)CN(C)C(=O)[C@H](Cc2ccc(C(F)(F)F)cc2)N2CC/C=C\C[C@@H](C2=O)N(C)C(=O)CN(C)C1=O [PP2003]	A (a compound having 10 or more and less than 20 is denoted as A)	11.3	B (a compound having 3 or more and less than 10 is denoted as B)
CC[C@H](C)[C@@H]1NC(=O)[C@H](C(C)C)N(C)C(=O)C[C@@H](C(=O)N(C)C)N(C)C(=O)[C@H](C2CCCC2)N(C)C(=O)C2(CC(C)(C)C2)NC(=O)[C@@H]2C[C@H](C)CN2C(=O)[C@H](CCc2ccc(C(F)(F)F)c(OC)c2)NC(=O)CN(C)C(=O)[C@H](Cc2ccc(C(F)(F)F)cc2)N2CC/C=C\C[C@@H](C2=O)N(C)C(=O)CN(C)C1=O [PP2005]	A (a compound having 10 or more and less than 20 is denoted as A)	10.7	A (a compound having 10 or more and less than 20 is denoted as A)
CC[C@H](C)[C@@H]1NC(=O)[C@H](C2CC2)N(C)C(=O)C[C@@H](C(=O)N(C)CC)N(C)C(=O)[C@H](C2CCCC2)N(C)C(=O)C2(CC(C)(C)C2)NC(=O)[C@@H]2C[C@H](C)CN2C(=O)[C@H](CCc2ccc(C(F)(F)F)c(OC)c2)NC(=O)CN(C)C(=O)[C@H](Cc2ccc(C(F)(F)F)cc2)N2CC/C=C\C[C@@H](C2=O)N(C)C(=O)CN(C)C1=O [PP2007]	AA (a compound having 20 or more is denoted as AA)	14.9	B (a compound having 3 or more and less than 10 is denoted as B)
